# Source: patent US20120264755A1, “PYRIDINYL DERIVATIVES AS INHIBITORS OF ENZYME NICOTINAMIDE PHOSPHORIBOSYLTRANSFERASE” (TopoTarget, priority 2009, published 2012)
# Structures can show the parent of a compound that is named as a salt.
# System: A2780 cells
# Experiment: In vitro cell proliferation assay (WST-1 assay)
# Format: cell-based
# Conditions: Homo sapiens, total incubation time 72 h, WST-1 readout
# Method: A2780 cells were seeded in 96-well plates at 3×10^3 cells/well in 100 μL of culture medium, 8 wells were left empty for media only controls.
# After 24 h the compound titrations were performed, in a separate dilution plate, by serially diluting the compounds of general formula (I) in culture medium. A 100 μL of each dilution was added to the plated cells, this was done in triplicate, and controls (e.g. DMSO and blanks) were included. The plates were incubated for 24 h at 37° C. in a CO2 incubator. The compound titrations were repeated in a separate dilution plate after 24 h. The media plus compound from the assay plates were then aspirated. A 100 μL of media was then added to all wells, followed by 100 μL of each compound dilution. The plates were incubated for a further 48 h at 37° C. in a CO2 incubator (total incubation time 72 h). The number of viable cells was then assessed using Cell Proliferation Reagent WST-1. 10 μL of WST-1 reagent added to each well and incubated for one to four hours at 37° C. in CO2 incubator. The absorbance was measured (450 nm/690 nm).
# The activity of compounds of general formula (I) in reducing the number of viable cells was calculated as:
# % activity=[(S^c−B)/(S^o−B)]×100
# S^c denotes signal measured in the presence of test compound, S^o denotes signal detected in the absence of compound, and B denotes background signal, measured in blank wells containing medium only. Analyse data using GraphPad Prism.
row,Structure (SMILES),IC50 [nM]
1,"N#CN=C(NCCCCCCOc1ccc(Cl)cc1)Nc1ccncc1 [CHS828, 1-(6-(4-chlorophenoxy)hexyl)-2-cyano-3-(pyridine-4-yl)guanidine, reference compound]",0.52
2,N#C/N=C(\NCCCCCCCCN(CCCN1CCOCC1)C1CCCCC1)Nc1ccncc1 [Compound 1001],0.49
3,"N#C/N=C(\NCCCCCCCN(CCCN1CCOCC1)C1CCCCC1)Nc1ccncc1 [Compound 1002, 2-cyano-1-(7-(cyclohexyl(3-morpholinopropyl)amino)heptyl)-3-(pyridin-4-yl)guanidine]",2.03
4,"N#C/N=C(\NCCCCCCN(CCCN1CCOCC1)C1CCCCC1)Nc1ccncc1 [Compound 1003, 2-cyano-1-(6-(cyclohexyl(3-morpholinopropyl)amino)hexyl)-3-(pyridin-4-yl)guanidine]",11.2
5,"N#C/N=C(\NCCCCCCCN(CCCN1CCOCC1)S(=O)(=O)C1CCCCC1)Nc1ccncc1 [Compound 1010, N-(7-(2-cyano-3-(pyridin-4-yl)guanidino)heptyl)-N-(3-morpholinopropyl)cyclohexanesulfonamide]",0.002
6,"N#C/N=C(\NCCCCCCCN(CCCN1CCOCC1)S(=O)(=O)C1CCCC1)Nc1ccncc1 [Compound 1011, N-(7-(2-cyano-3-(pyridin-4-yl)guanidino)heptyl)-N-(3-morpholinopropyl)cyclopentanesulfonamide]",0.003
7,"O=C(NCCCCCCCCN(CCCN1CCOCC1)S(=O)(=O)C1CCCC1)NCc1cccnc1 [Compound 1012, N-(3-morpholinopropyl)-N-(8-(3-(pyridin-3-ylmethyl)ureido)octyl)cyclopentanesulfonamide]",0.09
8,"O=C(NCCCCCCCCN(CCCN1CCOCC1)S(=O)(=O)C1CCCCC1)NCc1cccnc1 [Compound 1013, N-(3-morpholinopropyl)-N-(8-(3-(pyridin-3-ylmethyl)ureido)octyl)cyclohexanesulfonamide]",0.025
9,"O=C(NCCCCCCCN(CCCN1CCOCC1)S(=O)(=O)C1CCCC1)NCc1cccnc1 [Compound 1015, N-(3-morpholinopropyl)-N-(7-(3-(pyridin-3-ylmethyl)ureido)heptyl) cyclopentanesulfonamide]",0.1
10,"O=c1c(NCCCCCCCCN(CCCN2CCOCC2)S(=O)(=O)C2CCCC2)c(Nc2ccncc2)c1=O [Compound 1016, N-(8-(3,4-dioxo-2-(pyridin-4-ylamino)cyclobut-1-enylamino)octyl)-N-(3-morpholinopropyl)cyclopentanesulfonamide]",0.44
11,"O=c1c(NCCCCCCCN(CCCN2CCOCC2)S(=O)(=O)C2CCCC2)c(Nc2ccncc2)c1=O [Compound 1019, N-(7-(3,4-dioxo-2-(pyridin-4-ylamino)cyclobut-1-enylamino)heptyl)-N-(3-morpholinopropyl)cyclopentanesulfonamide]",0.44
12,CS(=O)(=O)N(CCCCCCCCN/C(=N\C#N)Nc1ccncc1)OCc1ccccc1 [Compound 1020],0.018
13,CS(=O)(=O)N(CCCCCCCCNC(=O)NCc1cccnc1)OCc1ccccc1 [Compound 1022],0.8
14,CC(C)S(=O)(=O)N(CCCCCCCCN/C(=N\C#N)Nc1ccncc1)OCc1ccccc1 [Compound 1024],0.047
15,"CC(C)S(=O)(=O)N(CCCCCCCCNC(=O)Nc1ccncc1)OCc1ccccc1 [Compound 1028, N-(Benzyloxy)-N-(8-(3-pyridin-4-ylureido)octyl)propane-2-sulfonamide]",0.37
16,"CS(=O)(=O)N(CCCCCCCCNC(=O)/C=C/c1cccnc1)CCCN1CCOCC1 [Compound 1033, N-(8-(N-(3-morpholinopropyl)methylsulfonamido)octyl)-3-(pyridin-3-yl)acrylamide]",1.17
17,"N#C/N=C(\NCCCCCCCCN(CCCN1CCOCC1)S(=O)(=O)c1ccccc1)Nc1ccncc1 [Compound 1035, N-(8-(2-cyano-3-(pyridin-4-yl)guanidino)octyl)-N-(3-morpholinopropyl)benzenesulfonamide]",0.042
18,O=C(NCCCCCCCCN(CCCN1CCOCC1)S(=O)(=O)c1ccccc1)NCc1cccnc1 [Compound 1037],0.002
19,O=C(NCCCCCCN(CCCN1CCOCC1)S(=O)(=O)C1CCCC1)NCc1cccnc1 [Compound 1046],0.38
20,N#C/N=C(\NCCCCCCCN(OC1CCCCO1)S(=O)(=O)Cc1ccccc1)Nc1ccncc1 (stereo not drawn) [Compound 1055],0.025
21,"O=c1c(NCCCCCCCN(OC2CCCCO2)S(=O)(=O)Cc2ccccc2)c(Nc2ccncc2)c1=O (stereo not drawn) [Compound 1056, N-(7-(3,4-Dioxo-2-(pyridin-4-ylamino)cyclobut-1-enylamino)heptyl)-1-Phenyl-N-(tetrahydro-2H-pyran-2-yloxy)methanesulfonamide]",0.35
22,"O=C(NCCCCCCCN(OC1CCCCO1)S(=O)(=O)Cc1ccccc1)NCc1cccnc1 (stereo not drawn) [Compound 1057, 1-Phenyl-N-(7-(3-(pyridin-3-ylmethyl)ureido)heptyl)-N-(tetrahydro-2H-pyran-2-yloxy)methanesulfonamide]",0.37
23,"O=C(/C=C/c1cccnc1)NCCCCCCCN(OC1CCCCO1)S(=O)(=O)Cc1ccccc1 (stereo not drawn) [Compound 1058, (E)-N-(7-(1-phenyl-N-(tetrahydro-2H-pyran-2-yloxy)methylsulfonamido)heptyl)-3-(pyridin-3-yl)acrylamide]",0.39

# Second part, the molecule after the results:
row,IC50 [nM],Structure (SMILES)
1,0.049,"CCS(=O)(=O)N(CCCCCCCN/C(=N\C#N)Nc1ccncc1)OCC1CCCCC1 [Compound 1060, N-(7-(2-cyano-3-(pyridin-4-yl)guanidino)heptyl)-N-(cyclohexylmethoxy)ethanesulfonamide]"
2,0.35,"CCS(=O)(=O)N(CCCCCCCNc1c(Nc2ccncc2)c(=O)c1=O)OCC1CCCCC1 [Compound 1061, N-(cyclohexylmethoxy)-N-(7-(3,4-dioxo-2-(pyridin-4-ylamino)cyclobut-1-enylamino)heptyl)ethanesulfonamide]"
3,0.44,"CCS(=O)(=O)N(CCCCCCCNC(=O)Nc1ccncc1)OCC1CCCCC1 [Compound 1064, N-(cyclohexylmethoxy)-N-(7-(3-(pyridin-4-yl)ureido)heptyl)ethanesulfonamide]"
4,0.049,"N#C/N=C(\NCCCCCCCCN(CCCN1CCOCC1)C(=O)c1ccccc1)Nc1ccncc1 [Compound 1071, N-(8-(2-cyano-3-(pyridin-4-yl)guanidino)octyl)-N-(3-morpholinopropyl)benzamide]"
5,0.17,"O=C(c1ccccc1)N(CCCCCCCCNc1c(Nc2ccncc2)c(=O)c1=O)CCCN1CCOCC1 [Compound 1072, N-(8-(3,4-dioxo-2-(pyridin-4-ylamino)cyclobut-1-enylamino)octyl)-N-(3-morpholinopropyl)benzamide]"
6,0.31,"O=C(NCCCCCCCCN(CCCN1CCOCC1)C(=O)c1ccccc1)NCc1cccnc1 [Compound 1073, N-(3-morpholinopropyl)-N-(8-(3-(Pyridin-3-ylmethyl)ureido)octyl)benzamide]"
7,0.6,"O=C(/C=C/c1cccnc1)NCCCCCCCCN(CCCN1CCOCC1)C(=O)c1ccccc1 [Compound 1074, (E)-N-(3-morpholinopropyl)-N-(8-(3-(pyridin-3-yl)acrylamido)octyl)benzamide]"
8,0.39,"O=C(c1ccccc1)N(CCCCCCCCNC(=S)Nc1ccncc1)CCCN1CCOCC1 [Compound 1075, N-(3-morpholinopropyl)-N-(8-(3-(pyridin-4-yl)thioureido)octyl)benzamide]"
9,0.075,"N#C/N=C(\NCCCCCCCCN(CCCN1CCOCC1)C(=O)c1ccccc1)Nc1cccnc1 [Compound 1076, N-(8-(2-cyano-3-(pyridin-3-yl)guanidino)octyl)-N-(3-morpholinopropyl)benzamide]"
10,0.55,"CCN(CCCCCCCCNC(=O)NCc1cccnc1)OCc1ccccc1 [Compound 1081, 1-(8-(benzyloxy(ethyl)amino)octyl)-3-(pyridin-3-ylmethyl)urea oxalate]"
11,0.062,"CCON(CCCCCCCCN/C(=N\C#N)Nc1ccncc1)Cc1ccccc1 [Compound 1085, 1-(8-(benzyl(ethoxy)amino)octyl)-2-cyano-3-(pyridin-4-yl)guanidine]"
12,0.024,"CCN(CCCCCCCCN/C(=N\C#N)Nc1ccncc1)OCCN1CCOCC1 [Compound 1086, 2-Cyano-1-(8-(ethyl(2-morpholinoethoxy)amino)octyl)-3-(pyridin-4-yl)guanidine oxalate]"
13,5.65,"CP(C)(=O)N(CCCCCCCCN/C(=N\C#N)Nc1ccncc1)CCCN1CCOCC1 [Compound 1088, 2-Cyano-1-(8-((dimethylphosphoryl)(3-morpholinopropyl)amino)octyl)-3-(pyridin-4-yl)guanidine]"
14,0.063,"N#C/N=C(\NCCCCCCCCN(CCCN1CCOCC1)C(=O)NC1CCCCC1)Nc1ccncc1 [Compound 1093, 1-(8-(2-cyano-3-(pyridin-4-yl)guanidino)octyl)-3-cyclohexyl-1-(morpholinopropyl)urea]"
15,0.036,"N#C/N=C(\NCCCCCCCCN(CCCN1CCOCC1)C(=S)Nc1ccccc1)Nc1ccncc1 [Compound 1094, 1-(8-(2-cyano-3-(pyridin-4-yl)guanidino)octyl)-1-(3-morpholinopropyl)-3-Phenylthiourea]"
16,0.07,"N#C/N=C(\NCCCCCCCN(CCF)S(=O)(=O)C1CCCCC1)Nc1ccncc1 [Compound 1098, N-(7-(2-cyano-3-(pyridin-4-yl)guanidino)heptyl)-N-(2-fluoroethyl)cyclohexansylfonamide]"
